# Test results published in patent publication US10597391B2, “Urea-containing isoxazole derivatives as FXR agonists and methods of use thereof” (Enanta Pharmaceuticals, Inc., priority 2016, dated 2020).
# Where two headings read alike, the source gives them in different places.
# Biological target: T1, human FXR (NR1H4) (Homo sapiens, UniProt Q96RI1)
# T1 sequence (Q96RI1 1-486): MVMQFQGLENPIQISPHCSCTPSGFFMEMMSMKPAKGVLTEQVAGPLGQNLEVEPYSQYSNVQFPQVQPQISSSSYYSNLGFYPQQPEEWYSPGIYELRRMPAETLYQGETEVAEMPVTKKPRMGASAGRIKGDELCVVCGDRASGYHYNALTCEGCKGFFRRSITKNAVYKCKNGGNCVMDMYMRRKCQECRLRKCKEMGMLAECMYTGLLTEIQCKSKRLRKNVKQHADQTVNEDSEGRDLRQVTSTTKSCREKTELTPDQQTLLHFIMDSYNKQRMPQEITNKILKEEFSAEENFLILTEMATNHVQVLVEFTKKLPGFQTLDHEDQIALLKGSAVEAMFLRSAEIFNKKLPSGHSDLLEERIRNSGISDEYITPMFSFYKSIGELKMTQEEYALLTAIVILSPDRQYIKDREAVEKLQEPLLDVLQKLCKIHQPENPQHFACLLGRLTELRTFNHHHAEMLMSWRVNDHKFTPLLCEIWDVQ
# Test: Human FXR (NR1H4) Assay: Gal4 promoter driven luciferase reporter transactivation in CHO cells (Indigo Bioscience kit IB00601)
# Type: cell-based
# Conditions: for Emax: CHO, read-out: Efficacy (%); for EC50: potency range, Human FXR (NR1H4) reporter assay in CHO cells, read-out: EC50
# Outline: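 CHO reporter cells expressing human NR1H4 with luciferase driven by an FXR-responsive promoter (Gal4 system), run per manufacturer's kit. Compounds applied to plated cells, then incubated a further 22 hours at 37° C. Luciferase luminescence read after detection reagent as a surrogate of FXR activation, giving potency and efficacy.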
# [1] = efficacy normalized to CDCA set as 100%
SMILES,Emax [1] [%],EC50 [nM],Emax [%]
CN(C)S(=O)(=O)NC(=O)c1ccc(NC(=O)N2C3CCC2CC(OCc2c(-c4ccccc4OC(F)(F)F)noc2C2CC2)C3)cc1 (stereo not shown) [Example 753],217,10 to 100,–
O=C(Nc1cncc(C(F)(F)F)c1)N1C2CCC1CC(OCc1c(-c3c(Cl)cccc3Cl)noc1C1CC1)C2 (stereo not shown) [Example 18],–,< 10,–
CCOC(=O)c1cccc(NC(=O)N2C3CCC2CC(OCc2c(-c4c(Cl)cccc4Cl)noc2C2CC2)C3)c1 (stereo not shown) [Example 181],–,< 10,–
O=C(O)c1cnc2cc(NC(=O)N3C4CCC3CC(OCc3c(-c5c(Cl)cccc5Cl)noc3C3CC3)C4)ccc2c1 (stereo not shown) [Example 779],50,10 to 100,–
CCOc1cc(C(=O)O)ccc1NC(=O)N1C2CCC1CC(NCc1c(-c3c(Cl)cccc3Cl)noc1C1CC1)C2 (stereo not shown) [Example 830],82,< 10,–
O=C(O)c1ccc(NC(=O)N2C3CCC2CC(OCc2c(-c4c(Cl)cccc4Cl)noc2C2CC2)C3)nc1 (stereo not shown) [Example 788],31,10 to 100,–
COC(=O)c1ccc(NC(=O)N2C3CCC2CC(OCc2c(-c4ccccc4OC(F)(F)F)noc2C2CC2)C3)c(F)c1 (stereo not shown) [Example 745],–,100 to 1000,–
O=C(O)c1cccc(NC(=O)N2C3CCC2CC(OCc2c(-c4c(Cl)cccc4Cl)noc2C2CC2)C3)c1 (stereo not shown) [Example 183],–,100 to 1000,–
O=C(O)c1ccc2c(c1)CCN2C(=O)N1C2CCC1CC(OCc1c(-c3ccccc3OC(F)(F)F)noc1C1CC1)C2 (stereo not shown) [Example 592],–,> 1000,227
O=C(O)c1cccc(NC(=O)N2C3CCC2CC(NCc2c(-c4c(Cl)cccc4Cl)noc2C2CC2)C3)c1 (stereo not shown) [Example 828],59,10 to 100,–
CCOC(=O)c1cccc(NC(=O)N2C3CCC2CC(OCc2c(-c4ccccc4OC(F)(F)F)noc2C2CC2)C3)c1 (stereo not shown) [Example 227],–,10 to 100,–
O=C(O)c1cccnc1NC(=O)N1C2CCC1CC(OCc1c(-c3ccccc3OC(F)(F)F)noc1C1CC1)C2 (stereo not shown) [Example 772],31,> 1000,–
COc1ccc(-c2cc(NC(=O)N3C4CCC3CC(OCc3c(-c5c(Cl)cccc5Cl)noc3C3CC3)C4)ccc2C(=O)O)cn1 (stereo not shown) [Example 787],97,< 10,–
COC(=O)c1cccc(OC)c1NC(=O)N1C2CCC1CC(OCc1c(-c3ccccc3OC(F)(F)F)noc1C1CC1)C2 (stereo not shown) [Example 751],26,100 to 1000,–
O=C(NC1CCCCC1)N1C2CCC1CC(OCc1c(-c3c(Cl)cccc3Cl)noc1C1CC1)C2 (stereo not shown) [Example 30],–,10 to 100,–
O=C(O)c1cccc(F)c1NC(=O)N1C2CCC1CC(OCc1c(-c3ccccc3OC(F)(F)F)noc1C1CC1)C2 (stereo not shown) [Example 768],33,> 1000,–

SMILES,Emax [1] [%],EC50 [nM],Emax [%]
O=C(Nc1cc(-c2cccnc2)cc(C(F)(F)F)c1)N1C2CCC1CC(OCc1c(-c3c(Cl)cccc3Cl)noc1C1CC1)C2 (stereo not shown) [Example 14],–,< 10,–
O=C(Nc1ccccc1F)N1C2CCC1CC(OCc1c(-c3c(Cl)cccc3Cl)noc1C1CC1)C2 (stereo not shown) [Example 7],–,10 to 100,–
O=C(O)c1ccc(NC(=O)N2C3CCC2CC(OCc2c(-c4ccccc4OC(F)(F)F)noc2C2CC2)C3)cc1OC(F)(F)F (stereo not shown) [Example 822],76,< 10,–
CN(C)S(=O)(=O)NC(=O)c1ccc(NC(=O)N2C3CCC2CC(OCc2c(-c4c(Cl)cccc4Cl)noc2C2CC2)C3)cc1 (stereo not shown) [Example 695],140,10 to 100,–
CN(C)S(=O)(=O)NC(=O)c1cccc(NC(=O)N2C3CCC2CC(OCc2c(-c4c(Cl)cccc4Cl)noc2C2CC2)C3)c1 (stereo not shown) [Example 219],–,100 to 1000,–
COC(=O)c1c(F)cc(NC(=O)N2C3CCC2CC(OCc2c(-c4c(Cl)cccc4Cl)noc2C2CC2)C3)cc1F (stereo not shown) [Example 198],–,< 10,–
O=C(O)c1ccc(NC(=O)N2C3CCC2CC(OCc2c(-c4ccccc4C(F)(F)F)noc2C2CC2)C3)c(C(F)(F)F)c1 (stereo not shown) [Example 817],20,10 to 100,–
O=C(O)c1ccc2c(c1)CN(C(=O)N1C3CCC1CC(OCc1c(-c4ccccc4OC(F)(F)F)noc1C1CC1)C3)CC2 (stereo not shown) [Example 834],102,100 to 1000,–
COC(=O)c1ccc(NC(=O)N2C3CCC2CC(OCc2c(-c4c(Cl)cccc4Cl)noc2C2CC2)C3)cc1-c1cnn(C)c1 (stereo not shown) [Example 774],102,< 10,–
CCOC(=O)c1ccc2c(c1)CCN2C(=O)N1C2CCC1CC(OCc1c(-c3ccccc3OC(F)(F)F)noc1C1CC1)C2 (stereo not shown) [Example 591],–,> 1000,166
COC(=O)c1ccc(OC)c(NC(=O)N2C3CCC2CC(OCc2c(-c4ccccc4OC(F)(F)F)noc2C2CC2)C3)c1 (stereo not shown) [Example 749],104,10 to 100,–
COC(=O)c1ccc(NC(=O)N2C3CCC2CC(OCc2c(-c4c(Cl)cccc4Cl)noc2C2CC2)C3)nc1 (stereo not shown) [Example 786],44,10 to 100,–
CCOc1cc(C(=O)O)ccc1NC(=O)N1C2CCC1CC(OCc1c(-c3ccccc3C3CC3)noc1C1CC1)C2 (stereo not shown) [Example 811],66,10 to 100,–
O=C(NCc1ccc(-c2ccccc2)cc1)N1C2CCC1CC(OCc1c(-c3c(Cl)cccc3Cl)noc1C1CC1)C2 (stereo not shown) [Example 738],139,100 to 1000,–
COC(=O)c1ccc(NC(=O)N2C3CCC2CC(OCc2c(-c4ccccc4OC(F)(F)F)noc2C2CC2)C3)nc1 (stereo not shown) [Example 764],230,100 to 1000,–
